Test results taken from patent US10086028B2, “Method for treating vascular inflammation, improving skin beauty and improving male sexual function using ginseng berry” (AMOREPACIFIC CORPORATION, priority 2007, dated 2018).

Experiments:
[1] = system: melanocytes (MeI-Ab cells); experiment: Inhibition of melanin generation in mouse melanocytes; type: cell-based, C57BL/6 mouse; details: added for 3 consecutive days; sample 10 μg/mL
Protocol: Inhibition of melanin generation in mouse melanocytes was evaluated in order to confirm the effect of the ginseng berry extract of Example 1 of inhibiting melanin generation.
First, melanocytes (MeI-Ab cells) derived from C57BL/6 mouse [Dooley, T. P. et al, Skin Pharmacol., 7, pp. 188-200] were cultured in Dulbecco's modified Eagle's medium (DMEM) containing 10% FBS, 100 nM 2-O-tetradecanoylphorbol-13-acetate and 1 nM cholera toxin under the condition of 37° C., 5% CO2. The cultured MeI-Ab cells were separated using 0.25% trypsin-EDTA, and cultured on a 24-well plate to a concentration of 10^5 cells/well. Starting from day 2, the ginseng berry extract of Example 1 (1 μg/mL, 10 μg/mL and 100 μg/mL), the ginseng berry saponin concentrate of Example 2 (10 μg/mL), the ginseng root extract of Comparative Example 1 (10 μg/mL) or ginsenosides Rg1, Rg2, Rh1 or Re (10 μg/mL) was added for 3 consecutive days. Hydroquinone (10 μg/mL) was used as a positive control substance. Then, after removing the medium and washing with PBS, the cells were dissolved with 1 N sodium hydroxide. Absorbance was measured at 400 nm, and melanin generation inhibition ratio was calculated by Equation 3.

[2] = system: endothelial cells (HUVEC); experiment: Increase of NO generation in endothelial cells (Test Example 12); type: cell-based
Protocol: Endothelial cells were adhered on a gelatin-coated 24-well plate, with a density of 2.5×10^4 cells/well. The cells were cultured for 12 hours using a growth medium. The endothelial cells were pre-treated for 12 hours, using the ginseng berry extract, the ginseng berry saponin concentrate or the ginseng root extract (Examples 1-2 and Comparative Example 1). Then, they, including a non-treated group, were treated with 10 μmol/L DAF-FM diacetate (Molecular Probe, Oreg.) at 37° C. for 30 minutes in an FBS-free M199 medium. Subsequently, the endothelial cells were washed 3 times with an FBS-free M199 medium, put in a parallel plate flow chamber, and stimulated with light isolated from a mercury lamp. Excitation wavelength was 488 nm. Fluorescence of 515 nm is emitted when DAF binds with NO.
Increase of generation of NO, which is known as an important signal transduction substance related with penile erection, in endothelial cells was observed after treating with the ginseng berry extract. Experiment was carried out in a manner substantially the same as that of Test Example 2, but L-arginine was treated together with the ginseng root extract of Comparative Example 1 and the ginseng berry extract of Example 1. […]

[3] = system: human HaCaT keratinocytes; experiment: Antioxidative effect: removal of UV-generated ROS in HaCaT keratinocytes; type: cell-based; details: ROS generated by UV in HaCaT; sample 10 μg/mL (Trolox given as (10))
Excerpt: Antioxidative effect of the ginseng berry extract was investigated by comparing the ability of removing reactive oxygen species (ROS) generated in human HaCaT keratinocytes by ultraviolet (UV) radiation.

type I procollagen = experiment: Type I procollagen assay in human fibroblasts (ELISA); type: cell-based; details: 3rd day, 10 ng/mL
Protocol: Human fibroblasts were cultured on a 12-well plate incubator to a concentration of 10^5 cells/well. Then, the medium was replaced by one including the ginseng berry extract of Example 1 (1 μg/mL and 10 μg/mL), the ginseng berry saponin concentrate of Example 2 (10 μg/mL), the ginseng root extract of Comparative Example 1 (10 μg/mL) or ginsenosides Rg1, Rg2, Rh1 or Re (10 μg/mL). 10 ng/mL transforming growth factor β (TGF-β) was used as a positive control substance.
On the 3rd day of culturing, the cells were harvested and the quantity of produced type I procollagen was analyzed using ELISA. The result was calculated as a relative value with respect to the negative control group, which was not treated with a test substance.

[4] = system: matrix metalloproteinase I (MMP-1); experiment: Inhibition of UVB-induced MMP-1 expression in human fibroblasts (ELISA); type: cell-based; details: UVB 40 mJ/cm^2, 2nd day, relative to UV control; 10 ng/mL
Protocol: Human fibroblasts were cultured on a 12-well plate incubator to a concentration of 10^5 cells/well. Then, after irradiating UVB at 40 mJ/cm^2, the medium was replaced by one including the ginseng berry extract of Example 1 (1 μg/mL and 10 μg/mL), the ginseng berry saponin concentrate of Example 2 (10 μg/mL), the ginseng root extract of Comparative Example 1 (10 μg/mL) or ginsenosides Rg1, Rg2, Rh1 or Re (10 μg/mL). 10 ng/mL TGF-β was used as a positive control substance. On the 2nd day of culturing, the cells were harvested and the quantity of produced matrix metalloproteinase I (MMP-1) was analyzed using ELISA. The result was calculated as a relative value with respect to the control group, which was irradiated with UV without treating with a test substance.

For Oc1ccc(O)cc1 [Hydroquinone], the “Melanin generation inhibition ratio (%)” value [1] was 39%.

For N=C(N)NCCC[C@H](N)C(=O)O [L-Arginine], the “increased NO generation with respect to the negative control group” value ([2]; 250 μM) was “about 2.7 times” and the “increased NO generation with respect to the negative control group” value ([2]; 500 μM) was ~5.5 times.

In the case of Cc1c(C)c2c(c(C)c1O)CCC(C)(C(=O)O)O2 (stereo not drawn) [Trolox], the “Antioxidative effect (%)” value [3] is reported as 33%.

In the case of transforming growth factor β [TGF-β], the “Procollagen activity relative to negative control (%)” value (type I procollagen) is reported as 145% and the “MMP-1 expression (%)” value [4] is reported as 65%.
